Common to all, as to assay: AK assay 384-well format, Prestwick library screening
One experiment concerns E. faecium. The class given is cell-based, Enterococcus faecium. As to conditions: 50 μM final drug concentration; for fold induction at 50 µM: Enterococcus faecium, 3 h.
Experiment [1] relates to S. aureus strain USA300-0114. The experiment is classed as cell-based, Staphylococcus aureus. Conditions: 50 μM final drug concentration; for fold induction at 50 µM: Staphylococcus aureus, USA300, 3 h.
In another experiment the test system is K. pneumoniae. The class given is cell-based, Klebsiella pneumoniae. Conditions: 50 μM final drug concentration; for fold induction at 50 µM: Klebsiella pneumoniae, 3 h.
Experiment [2] concerns A. baumannii strain 98-37-09. The experiment is classed as cell-based, Acinetobacter baumannii. Conditions: 50 μM final drug concentration; for fold induction at 50 µM: Acinetobacter baumannii, 983709, 3 h.
A further experiment has as its system P. aeruginosa. The experiment is classed as cell-based, Pseudomonas aeruginosa. Conditions: 50 μM final drug concentration; for fold induction at 50 µM: Pseudomonas aeruginosa, 3 h.
In another experiment the test system is E. cloacae. The experiment is classed as cell-based, Enterobacter cloacae. As to conditions: 50 μM final drug concentration; for fold induction at 50 µM: Enterobacter cloacae, 3 h.
A further experiment deals with E. coli. The experiment is classed as cell-based, Escherichia coli. As to conditions: 50 μM final drug concentration; for fold induction at 50 µM: Escherichia coli, 3 h.
Where [3] appears, read: cutoff for positive-scoring molecules 3-fold increase, read-out: AK-based Prestwick Library Screening Results, E. faecium (fold increase in extracellular AK activity).
Setting [4] is: cutoff for positive-scoring molecules 3-fold increase, read-out: AK-based Prestwick Library Screening Results, S. aureus (fold increase in extracellular AK activity).
[5] abbreviates: cutoff for positive-scoring molecules 3-fold increase, read-out: AK-based Prestwick Library Screening Results, K. pneumoniae (fold increase in extracellular AK activity).
[6] abbreviates: cutoff for positive-scoring molecules 3-fold increase, read-out: AK-based Prestwick Library Screening Results, A. baumannii (fold increase in extracellular AK activity).
Where [7] appears, read: cutoff for positive-scoring molecules 3-fold increase, read-out: AK-based Prestwick Library Screening Results, P. aeruginosa (fold increase in extracellular AK activity).
The mark [8] stands for this setting: cutoff for positive-scoring molecules 3-fold increase, read-out: AK-based Prestwick Library Screening Results, E. cloacae (fold increase in extracellular AK activity).
Where [9] appears, read: cutoff for positive-scoring molecules 3-fold increase, read-out: AK-based Prestwick Library Screening Results, E. coli (fold increase in extracellular AK activity).
Setting [10] is: cutoff for positive-scoring molecules 3-fold increase.
Where [11] appears, read: 384-well format, cutoff for positive-scoring molecules 3-fold increase.

Where a name gives a salt, the structure may show the parent alone. Read-outs that look alike come from different tables or passages of the source.

For the molecule `Clc1ccc(C(OCCN2CCCCC2)c2ccccc2)cc1` (stereo not shown) [Cloperastine hydrochloride], the fold induction at 50 µM in the experiment with E. faecium (setting [3]) came to 1.1; in experiment [1] (setting [4]), 1.3; in the experiment with K. pneumoniae (setting [5]), 1.2; in experiment [2] (setting [6]), 1.4; with P. aeruginosa (setting [7]), 1.2; in the experiment on E. cloacae (setting [8]), 2. Moreover, the fold induction at 50 µM in the experiment on E. coli (setting [9]) was determined as 1.2.

With `COc1cccc2c1C(=O)c1c(O)c3c(c(O)c1C2=O)C[C@@](O)(C(=O)CO)C[C@@H]3O[C@H]1C[C@H](N)[C@H](O)[C@H](C)O1` [Doxorubicin hydrochloride], the fold induction at 50 µM is 1.7 in the experiment on E. faecium (planktonic E. faecium, cutoff for positive-scoring molecules 3-fold increase, read-out: AK-based Prestwick Library Screening Results, E. faecium (increase in extracellular AK activity)); 0.9 in experiment [1] (planktonic S. aureus, cutoff for positive-scoring molecules 3-fold increase, read-out: AK-based Prestwick Library Screening Results, S. aureus (increase in extracellular AK activity)); 0.7 in the experiment on K. pneumoniae (planktonic K. pneumoniae, cutoff for positive-scoring molecules 3-fold increase, read-out: AK-based Prestwick Library Screening Results, K. pneumoniae (increase in extracellular AK activity)); 1 in experiment [2] (planktonic A. baumannii, cutoff for positive-scoring molecules 3-fold increase, read-out: AK-based Prestwick Library Screening Results, A. baumannii (increase in extracellular AK activity)); 0.6 in the experiment with P. aeruginosa (planktonic P. aeruginosa, cutoff for positive-scoring molecules 3-fold increase, read-out: AK-based Prestwick Library Screening Results, P. aeruginosa (increase in extracellular AK activity)); 1.2 in the experiment on E. cloacae (planktonic E. cloacae, cutoff for positive-scoring molecules 3-fold increase, read-out: AK-based Prestwick Library Screening Results, E. cloacae (increase in extracellular AK activity)). For the same molecule, the fold induction at 50 µM in the experiment with E. coli (planktonic E. coli, cutoff for positive-scoring molecules 3-fold increase, read-out: AK-based Prestwick Library Screening Results, E. coli (increase in extracellular AK activity)) is 1.

With `CC[C@H]1CN2CC[C@H]1C[C@H]2[C@H](O)c1ccnc2ccc(OC)cc12` [Hydroquinine hydrobromide hydrate], the fold induction at 50 µM in the experiment with E. faecium (planktonic, cutoff for positive 3-fold increase, read-out: AK-based Prestwick Library Screening Results, E. faecium (fold increase in extracellular AK activity)) was found to be 1.1; in experiment [1] (planktonic, cutoff for positive 3-fold increase, read-out: AK-based Prestwick Library Screening Results, S. aureus (fold increase in extracellular AK activity)), 1; in the experiment with K. pneumoniae (planktonic, cutoff for positive 3-fold increase, read-out: AK-based Prestwick Library Screening Results, K. pneumoniae (fold increase in extracellular AK activity)), 1.3; in experiment [2] (planktonic, cutoff for positive 3-fold increase, read-out: AK-based Prestwick Library Screening Results, A. baumannii (fold increase in extracellular AK activity)), 1.2; in the experiment with P. aeruginosa (planktonic, cutoff for positive 3-fold increase, read-out: AK-based Prestwick Library Screening Results, P. aeruginosa (fold increase in extracellular AK activity)), 1.2; in the experiment on E. cloacae (planktonic, cutoff for positive 3-fold increase, read-out: AK-based Prestwick Library Screening Results, E. cloacae (fold increase in extracellular AK activity)), 1.6. Also, the fold induction at 50 µM in the experiment with E. coli (planktonic, cutoff for positive 3-fold increase, read-out: AK-based Prestwick Library Screening Results, E. coli (fold increase in extracellular AK activity)) came to 1.2.

Turning to `COc1ccc2cc([C@@H](C)C(=O)[O-])ccc2c1.[Na+]` [(R)-Naproxen sodium salt], the “AK-based Prestwick Library Screening Results, E. faecium (fold increase in extracellular AK activity)” value with E. faecium (setting [10]) amounted to 1.0. Besides, the “AK-based Prestwick Library Screening Results, S. aureus (fold increase in extracellular AK activity)” value in experiment [1] (setting [10]) is 1.0. The “AK-based Prestwick Library Screening Results, K. pneumoniae (fold increase in extracellular AK activity)” value in the experiment with K. pneumoniae (setting [10]) is on record as 1.0. The “AK-based Prestwick Library Screening Results, A. baumannii (fold increase in extracellular AK activity)” value in experiment [2] (setting [10]) is recorded as 1.1. Also, in the experiment with P. aeruginosa (setting [10]), the “AK-based Prestwick Library Screening Results, P. aeruginosa (fold increase in extracellular AK activity)” value came out at 1.0. For the same molecule, in the experiment with E. cloacae (setting [10]), the “AK-based Prestwick Library Screening Results, E. cloacae (fold increase in extracellular AK activity)” value is listed as 1.7. Moreover, in the experiment with E. coli (setting [10]), the “AK-based Prestwick Library Screening Results, E. coli (fold increase in extracellular AK activity)” value turned out to be 1.1.

For `Cn1cc[nH]c1=S` [Methimazole], the fold induction at 50 µM stood at 0.9 in the experiment with E. faecium (setting [3]); 1 in experiment [1] (setting [4]); 1 with K. pneumoniae (setting [5]); 1.4 in experiment [2] (setting [6]); 1 in the experiment with P. aeruginosa (setting [7]); 27.1 in the experiment with E. cloacae (setting [8]). Moreover, the fold induction at 50 µM with E. coli (setting [9]) stood at 1.2.

Turning to `C[C@H](CCC(=O)O)[C@H]1CC[C@H]2[C@@H]3CC[C@@H]4C[C@H](O)CC[C@]4(C)[C@H]3CC[C@]12C` [Lithocholic acid], the fold induction at 50 µM is 1.2 in the experiment on E. faecium (setting [3]); 1.1 in experiment [1] (setting [4]); 0.8 in the experiment on K. pneumoniae (setting [5]); 1 in experiment [2] (setting [6]); 1 in the experiment on P. aeruginosa (setting [7]); 1.7 with E. cloacae (setting [8]). For the same molecule, the fold induction at 50 µM in the experiment on E. coli (setting [9]) is 0.8.

With `CNCC(O)c1ccc(O)c(OC)c1.Cl` (stereo not drawn) [Metanephrine hydrochloride DL], the “AK-based Prestwick Library Screening Results, E. faecium (increase in extracellular AK activity)” value in the experiment with E. faecium (setting [11]) was 1.0. Besides, the “AK-based Prestwick Library Screening Results, S. aureus (increase in extracellular AK activity)” value in experiment [1] (setting [11]) worked out at 1.2. Further, the “AK-based Prestwick Library Screening Results, K. pneumoniae (increase in extracellular AK activity)” value with K. pneumoniae (setting [11]) was found to be 1.0. Also, in experiment [2] (setting [11]), the “AK-based Prestwick Library Screening Results, A. baumannii (increase in extracellular AK activity)” value was determined as 1.1. The “AK-based Prestwick Library Screening Results, P. aeruginosa (increase in extracellular AK activity)” value in the experiment on P. aeruginosa (setting [11]) is on record as 1.1. The “AK-based Prestwick Library Screening Results, E. cloacae (increase in extracellular AK activity)” value in the experiment with E. cloacae (setting [11]) is 1.3. Also, the “AK-based Prestwick Library Screening Results, E. coli (increase in extracellular AK activity)” value in the experiment with E. coli (setting [11]) is recorded as 1.3.

For the molecule `Clc1ccc2c(c1)C(N1CCNCC1)=Nc1ccccc1O2` [Amoxapine], the fold induction at 50 µM worked out at 0.9 with E. faecium (384-well format, cutoff for positive-scoring molecules 3-fold increase, read-out: AK-based Prestwick Library Screening Results, E. faecium (increase in extracellular AK activity)); 0.7 in experiment [1] (384-well format, cutoff for positive-scoring molecules 3-fold increase, read-out: AK-based Prestwick Library Screening Results, S. aureus (increase in extracellular AK activity)); 0.8 in the experiment on K. pneumoniae (384-well format, cutoff for positive-scoring molecules 3-fold increase, read-out: AK-based Prestwick Library Screening Results, K. pneumoniae (increase in extracellular AK activity)); 0.8 in experiment [2] (384-well format, cutoff for positive-scoring molecules 3-fold increase, read-out: AK-based Prestwick Library Screening Results, A. baumannii (increase in extracellular AK activity)); 0.9 in the experiment on P. aeruginosa (384-well format, cutoff for positive-scoring molecules 3-fold increase, read-out: AK-based Prestwick Library Screening Results, P. aeruginosa (increase in extracellular AK activity)); 0.9 with E. cloacae (384-well format, cutoff for positive-scoring molecules 3-fold increase, read-out: AK-based Prestwick Library Screening Results, E. cloacae (increase in extracellular AK activity)). The fold induction at 50 µM in the experiment with E. coli (384-well format, cutoff for positive-scoring molecules 3-fold increase, read-out: AK-based Prestwick Library Screening Results, E. coli (increase in extracellular AK activity)) is 1.

As for `C=C1C[C@]23C[C@@]1(O)CC[C@H]2[C@@]12C=C[C@H](O)[C@@](C)(C(=O)O1)[C@H]2[C@@H]3C(=O)O` [Gibberellic acid], the fold induction at 50 µM in the experiment on E. faecium (setting [3]) worked out at 0.8; in experiment [1] (setting [4]), 0.4; with K. pneumoniae (setting [5]), 0.5; in experiment [2] (setting [6]), 0.4; in the experiment with P. aeruginosa (setting [7]) it was 0.4; in the experiment with E. cloacae (setting [8]), 0.4. In addition, the fold induction at 50 µM with E. coli (setting [9]) was 0.5.

Turning to `COC(=O)[C@H]1[C@H]2C[C@@H]3c4[nH]c5cc(OC)ccc5c4CCN3C[C@H]2C[C@@H](OC(=O)c2cc(OC)c(OC)c(OC)c2)[C@@H]1OC` [Reserpine], the fold induction at 50 µM in the experiment with E. faecium (setting [3]) came to 1.1; in experiment [1] (setting [4]), 1.3; in the experiment on K. pneumoniae (setting [5]), 1.2; in experiment [2] (setting [6]) it was 1.5; with P. aeruginosa (setting [7]) it was 1.4; in the experiment with E. cloacae (setting [8]) it was 1.5. The fold induction at 50 µM with E. coli (setting [9]) was 1.3.

The record behind these values is patent US10004701B2, “Methods and compositions for treating infection” (UNIVERSITY OF ROCHESTER, priority 2012, dated 2018).
